Laboratory results from patent US8263369B2, “Compound ceramidastin, method for producing the same, and use of the same” (Microbial Chemistry Research Foundation, priority 2008, dated 2012).

Assays:
NC/Nga mice = test: Therapeutic effects on atopic dermatitis-like model mice (mast cell count in skin); format: in vivo
Text: Atopic dermatitis-like model mice were used to test ceramidastin for the therapeutic effects on atopic dermatitis. Specifically, the above-obtained enzyme liquid was applied onto the mice to examine the aggravation degree of corneal layer of epidermis and inflammation. In addition, the enzyme liquid and ceramidastin were applied thereonto to examine the effects on the skin brought by inhibiting neutral/alkaline ceramidase activity.
The atopic dermatitis-like model mice used were 6-week-old NC/Nga female mice (product of Charles River). The above NC/Nga mice are used as an atopic dermatitis model (Hiroi et al. Jpn. J. Pharmacol. 76, 175-183, 1998) and have an increased number of mast cells in the skin tissue.
Hair was removed in advance from the 6-week-old NC/Nga female mice under anesthesia (six mice for each group). Subsequently, absorbent cotton impregnated with acetone-ether (1:1) was pressed for 15 sec against them under anesthesia by nembutal. […]
The procedure of the above defatting and applications of ceramidase and ceramidastin was repeated 47 times in total so that it was performed twice in the morning and evening for 5 days a week. […] The thus-formed tissue pieces were stained with toluidine blue, and the number of mast cells in the tissue was counted under a microscope.

[1] = molecular target: T1, neutral/alkaline ceramidase (Pseudomonas aeruginosa, UniProt Q9I596); test: Neutral/alkaline ceramidase activity inhibitory test; format: biochemical; details: enzyme liquid from Pseudomonas aeruginosa culture; C12-NBD Ceramide substrate; pH 8.5; 37° C., 2.5 hours; TLC fluorescence; read-out: neutral/alkaline ceramidase inhibitory activity in terms of IC50 (converted)
T1 construct: the culture liquid was sterilized through filtration; endogenous in cells; host or cells: Pseudomonas aeruginosa (human clinical isolate), sterile-filtered culture supernatant, not purified
Experimental: A seed medium used was prepared as follows. Specifically, 3 g of Nissui Trypto-Soya Broth (product of Nissui Seiyaku) was dissolved in 100 mL of deionized water, and the resultant solution was dispensed into test tubes so that each test tube contained 3 mL of the solution, followed by high-pressure sterilization. Then, Pseudomonas aeruginosa (human clinical isolate) was inoculated into the seed medium in an amount of 2% by volume, and seed culturing was performed in a water bath at 37° C. and 100 rpm for 3 hours.
A synthetic medium for main culturing was prepared as follows. […]
Neutral/alkaline ceramidase activity was measured according to the method used by Okino et al. (J. Biol. Chem. 273, 14368-14373, 1998) with minor modifications. […]
The above solution (20 μL) was spotted onto a TLC plate (MERCK 25 TLC plates 20 cm×20 cm Silica gel 60 F254) and developed (chloroform:methanol ammonia (25%)=90:20:0.5, by volume). Subsequently, Image Reader FLA 5000 (product of FUJIFILM Corporation) was used to measure the fluorescence derived from the substrate, and Science Lab 2001 ImageGauge (product of FUJIFILM Corporation) was used to calculate the inhibitory rate of substrate decomposition.

T1 sequence (Q9I596 25-670): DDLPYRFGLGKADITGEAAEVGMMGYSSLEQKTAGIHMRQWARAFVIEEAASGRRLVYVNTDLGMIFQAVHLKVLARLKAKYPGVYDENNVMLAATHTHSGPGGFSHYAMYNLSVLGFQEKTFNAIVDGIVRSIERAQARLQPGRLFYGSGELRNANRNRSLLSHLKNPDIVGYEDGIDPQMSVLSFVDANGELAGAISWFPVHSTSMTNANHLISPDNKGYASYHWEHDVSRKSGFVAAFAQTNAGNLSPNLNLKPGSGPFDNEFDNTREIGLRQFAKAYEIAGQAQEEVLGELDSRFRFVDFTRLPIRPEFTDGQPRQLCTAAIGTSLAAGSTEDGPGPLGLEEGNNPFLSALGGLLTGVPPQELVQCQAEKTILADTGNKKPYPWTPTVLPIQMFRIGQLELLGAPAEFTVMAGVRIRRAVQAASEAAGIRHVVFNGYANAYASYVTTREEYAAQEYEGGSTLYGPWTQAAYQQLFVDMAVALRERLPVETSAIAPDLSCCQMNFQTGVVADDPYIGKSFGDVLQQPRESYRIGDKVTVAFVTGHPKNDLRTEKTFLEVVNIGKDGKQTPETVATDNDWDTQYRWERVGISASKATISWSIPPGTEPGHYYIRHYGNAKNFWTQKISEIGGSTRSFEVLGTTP

SMILES: CCCCCCC(O)C1C2=C(CC(C(O)C(O)C/C=C/CO)CC3=C(C(=O)OC3=O)C1O)C(=O)OC2=O (stereo not drawn) [ceramidastin]
- number of mast cells in mouse skin pieces (NC/Nga mice; NC/Nga female mice, defatting + ceramidase + 0.2 mL ceramidastin 1 mg/mL on skin, 47 times, toluidine blue, ceramidase-applied 22.6±8.5, untreated 13.04±4.38): 15.5±5.2
- effect on increase in the number of mast cells (NC/Nga mice; ceramidase+ceramidastin-applied skin pieces vs ceramidase-applied skin pieces, NC/Nga mice): significantly inhibited
- IC50 [1]: 12 µM
